Values joined by “and” are separate entries in the source; they are usually repeats but may differ in a detail not shown here. Equal values may be shown once.
Experiment: A mix consisting of 20 nM GST-MDM2 protein (aa 23-117) and 20 nM biotinylated p53 wt peptide (encompassing aa 16-27 of wt human p53, amino acid sequence QETFSDLWKLLP-Ttds-Lys-Biotin, molecular weight 2132.56 g/mol) is prepared in assay buffer (50 mM Tris/HCl pH 7.2; 120 mM NaCl; 0.1% bovine serum albumin (BSA); 5 mM dithiothreitol (DTT); 1 mM ethylenediaminetetraacetic acid (EDTA); 0.01% Tween 20). 30 μL of the mix is added to the compound dilutions and incubated for 15 min at rt while gently shaking the plate at 300 rounds per minute (rpm). Subsequently, 15 μL of premixed AlphaLISA Glutathione Acceptor Beads and AlphaScreen Streptavidin Donor Beads from PerkinElmer (in assay buffer at a concentration of 10 μg/mL each) are added and the samples are incubated for 30 min at rt in the dark (shaking 300 rpm). Afterwards, the signal is measured in a PerkinElmer Envision HTS Multilabel Reader using the AlphaScreen protocol from PerkinElmer.Each plate contains negative controls where biotinylated p53-peptide and GST-MDM2 are left out and replaced by assay buffer. Negative control values are entered as low basis value when using the software GraphPad Prism for calculations.

COC(=O)c1ccc2c(c1)nc1n2CC[C@H]2[C@@H]1[C@H](c1cccc(Cl)c1F)[C@]1(C(=O)Nc3cc(Cl)ccc31)N2CC1CC1
IC50: 3 nM

CC(=O)Nc1ccc2c(c1)nc1n2CC[C@H]2[C@@H]1[C@H](c1cccc(Cl)c1F)[C@]1(C(=O)Nc3cc(Cl)ccc31)N2C(C)C1CC1 (some centres undefined)
IC50: 15 nM

CC(C1CC1)N1[C@H]2CCn3c(nc4cc(S(C)(=O)=O)ccc43)[C@H]2[C@H](c2cccc(Cl)c2F)[C@]12C(=O)Nc1cc(Cl)ccc12 (some centres undefined)
IC50: 12 nM and 7 nM

CS(=O)(=O)OCCN1[C@H]2CCn3c(nc4cc(C(=O)O)ccc43)[C@H]2[C@H](c2cccc(Cl)c2F)[C@]12C(=O)Nc1cc(Cl)ccc12
IC50: 58 nM
